ChEMBL document CHEMBL1201862, “PubChem BioAssay data set” (2004)
One block for each compound: values may come before it. Calls of active or inactive are those of the source.

How the values were obtained:
[1] = biological target: T1, Nucleotide-binding oligomerization domain-containing protein 1 (Homo sapiens, UniProt Q9Y239); test: SAR analysis of NF-kappaB dependent luciferase using DAP as an inducer - Set 2. [Related pubchem assays (depositor defined):AID1566, AID1575, AID1578, AID1579, AID1849, AID1852, AID2264]; format: functional
T1 sequence (Q9Y239 whole entry): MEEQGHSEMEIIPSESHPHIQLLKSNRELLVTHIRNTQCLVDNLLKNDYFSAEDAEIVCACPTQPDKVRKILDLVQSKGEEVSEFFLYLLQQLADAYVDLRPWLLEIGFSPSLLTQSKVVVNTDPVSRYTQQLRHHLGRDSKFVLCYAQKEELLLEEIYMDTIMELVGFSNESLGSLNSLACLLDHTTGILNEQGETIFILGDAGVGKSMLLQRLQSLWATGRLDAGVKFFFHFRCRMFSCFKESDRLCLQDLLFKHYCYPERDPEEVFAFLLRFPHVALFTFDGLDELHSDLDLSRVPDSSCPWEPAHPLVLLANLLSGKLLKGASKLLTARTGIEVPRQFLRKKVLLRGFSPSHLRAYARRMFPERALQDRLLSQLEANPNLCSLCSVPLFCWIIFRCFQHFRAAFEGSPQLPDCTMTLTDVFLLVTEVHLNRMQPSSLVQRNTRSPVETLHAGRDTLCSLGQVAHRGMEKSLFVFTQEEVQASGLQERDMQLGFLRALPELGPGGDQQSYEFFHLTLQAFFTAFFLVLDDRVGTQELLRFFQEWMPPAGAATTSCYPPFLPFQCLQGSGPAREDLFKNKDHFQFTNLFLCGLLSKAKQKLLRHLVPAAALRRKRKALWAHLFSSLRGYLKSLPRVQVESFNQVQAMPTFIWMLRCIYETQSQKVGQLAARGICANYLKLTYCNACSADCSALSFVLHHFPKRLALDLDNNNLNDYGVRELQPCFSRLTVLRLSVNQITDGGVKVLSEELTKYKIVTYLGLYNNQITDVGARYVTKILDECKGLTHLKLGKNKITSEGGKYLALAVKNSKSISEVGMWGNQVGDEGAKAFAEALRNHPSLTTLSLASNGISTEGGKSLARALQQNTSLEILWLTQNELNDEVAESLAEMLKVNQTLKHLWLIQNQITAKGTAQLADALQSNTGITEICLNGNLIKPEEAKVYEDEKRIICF

[2] = biological target: T1, Nucleotide-binding oligomerization domain-containing protein 1; test: SAR analysis of compounds that inhibit NOD1 - Set 3. [Related pubchem assays (depositor defined):AID1566, AID1575, AID1578, AID1849, AID1852, AID2333, AID2335, AID2466]; format: functional
HEK293 [3] = test: SAR analysis of compounds that are cytotoxic to HEK293 - Set 3. [Related pubchem assays (depositor defined):AID1575, AID1578, AID1848, AID1849, AID2001, AID2333, AID2334, AID2335, AID2337, AID2469]; format: functional, cell-based; conditions: Homo sapiens
Interleukin-8 [4] = biological target: T2, Interleukin-8 (Homo sapiens, UniProt P10145); test: SAR analysis of Tumor necrosis factor alpha (TNF-alpha) induced IL-8 secretion in MCF-7/NOD1 cells - Set 2. [Related pubchem assays (depositor defined):AID1575, AID2250, AID2260]; format: functional, cell-based
T2 sequence (P10145 whole entry): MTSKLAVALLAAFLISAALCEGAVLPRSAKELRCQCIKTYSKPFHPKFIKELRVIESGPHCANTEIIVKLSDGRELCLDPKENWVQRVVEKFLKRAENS

Tumor necrosis factor = Tumor necrosis factor (Homo sapiens, UniProt P01375); test: analog potency on TNFa NF-kB signaling – cell-based, set 3, SAR follow-up (AID 2801); format: functional
Tumor necrosis factor, sequence (P01375 whole entry, the tested form may be a part): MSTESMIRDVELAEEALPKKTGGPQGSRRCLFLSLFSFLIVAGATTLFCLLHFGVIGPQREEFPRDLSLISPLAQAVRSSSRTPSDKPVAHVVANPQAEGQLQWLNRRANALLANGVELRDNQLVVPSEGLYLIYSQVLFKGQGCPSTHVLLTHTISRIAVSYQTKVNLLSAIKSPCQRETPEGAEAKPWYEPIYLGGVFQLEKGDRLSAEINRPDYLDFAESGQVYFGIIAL

[5] = biological target: T1, Nucleotide-binding oligomerization domain-containing protein 1; test: SAR analysis of compounds that inhibit NOD1 - Set 2. [Related pubchem assays (depositor defined):AID1566, AID1575, AID1578, AID1849, AID1852, AID2333, AID2335, AID2798]; format: functional
[6] = biological target: T3, Nucleotide-binding oligomerization domain-containing protein 2 (Homo sapiens, UniProt Q9HC29); test: inhibition of NOD2 signaling – set 2, SAR follow-up (AID 2475); format: functional
T3 sequence (Q9HC29 whole entry, the tested form may be a part): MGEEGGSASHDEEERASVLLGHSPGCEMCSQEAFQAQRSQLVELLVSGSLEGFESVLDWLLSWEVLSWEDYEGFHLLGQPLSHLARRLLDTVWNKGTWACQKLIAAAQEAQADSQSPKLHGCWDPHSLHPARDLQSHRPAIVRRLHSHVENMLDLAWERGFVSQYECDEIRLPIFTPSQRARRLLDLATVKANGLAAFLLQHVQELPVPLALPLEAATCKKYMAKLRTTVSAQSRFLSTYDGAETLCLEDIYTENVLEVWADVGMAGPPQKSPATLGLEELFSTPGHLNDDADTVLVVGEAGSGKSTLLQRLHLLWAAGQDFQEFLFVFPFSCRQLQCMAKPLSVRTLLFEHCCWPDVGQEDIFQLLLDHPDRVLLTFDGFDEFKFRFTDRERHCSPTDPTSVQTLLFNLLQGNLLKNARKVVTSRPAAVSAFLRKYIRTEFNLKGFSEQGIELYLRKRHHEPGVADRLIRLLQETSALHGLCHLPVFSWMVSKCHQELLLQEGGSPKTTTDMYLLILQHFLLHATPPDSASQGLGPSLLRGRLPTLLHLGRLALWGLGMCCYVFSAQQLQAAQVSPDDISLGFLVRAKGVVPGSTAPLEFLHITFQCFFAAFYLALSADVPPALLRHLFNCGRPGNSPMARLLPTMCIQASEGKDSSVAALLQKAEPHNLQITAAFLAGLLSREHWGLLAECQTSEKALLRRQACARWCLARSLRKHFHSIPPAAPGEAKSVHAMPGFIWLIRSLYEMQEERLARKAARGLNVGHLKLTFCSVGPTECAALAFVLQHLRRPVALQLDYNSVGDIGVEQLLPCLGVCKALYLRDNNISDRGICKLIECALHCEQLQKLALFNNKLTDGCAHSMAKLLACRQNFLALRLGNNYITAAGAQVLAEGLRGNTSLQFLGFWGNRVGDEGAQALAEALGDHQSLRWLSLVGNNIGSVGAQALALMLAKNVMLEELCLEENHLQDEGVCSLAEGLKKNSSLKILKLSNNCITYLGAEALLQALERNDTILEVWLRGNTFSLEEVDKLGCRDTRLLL

[7] = biological target: T3, Nucleotide-binding oligomerization domain-containing protein 2; test: inhibition of MDP-driven NOD2 NF-kB reporter – cell-based, set 3, SAR follow-up (AID 2799); format: functional
HEK293 [8] = test: SAR analysis of compounds that are cytotoxic to HEK293 - Set 2. [Related pubchem assays (depositor defined):AID1575, AID1578, AID1849, AID2001, AID2333, AID2334, AID2335, AID2337, AID2800]; format: functional, cell-based; conditions: Homo sapiens
Interleukin-8 [9] = biological target: T2, Interleukin-8; test: SAR analysis of GM-Tri-DAP induced IL-8 secretion in MCF-7/NOD1 cells - Set 2. [Related pubchem assays (depositor defined):AID1575, AID1578, AID2333]; format: functional, cell-based
[10] = biological target: T4, G-protein coupled receptor 55 (Homo sapiens, UniProt Q9Y2T6); test: blockade of LPI-induced GPR55 arrestin translocation – imaging, U2OS, beta-arrestin-GFP, LPI agonist, set 2, SAR follow-up (AID 2820); format: functional
T4 sequence (Q9Y2T6 whole entry): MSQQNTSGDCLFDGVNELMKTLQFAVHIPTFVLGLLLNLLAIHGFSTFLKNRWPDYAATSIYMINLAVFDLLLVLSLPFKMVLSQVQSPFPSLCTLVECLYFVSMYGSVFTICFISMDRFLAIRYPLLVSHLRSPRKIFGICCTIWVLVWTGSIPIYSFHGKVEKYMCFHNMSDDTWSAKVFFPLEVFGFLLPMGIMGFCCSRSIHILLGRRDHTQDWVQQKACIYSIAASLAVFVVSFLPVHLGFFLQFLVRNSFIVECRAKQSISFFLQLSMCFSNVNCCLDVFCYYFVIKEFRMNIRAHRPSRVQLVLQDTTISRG

[11] = biological target: T5, G-protein coupled receptor 35 (Homo sapiens, UniProt Q9HC97); test: SAR analysis of Agonists of the GPR35 Receptor using an Image-Based Assay - Set 2. [Related pubchem assays (depositor defined):AID2013, AID2026]; format: functional
T5 sequence (Q9HC97 whole entry): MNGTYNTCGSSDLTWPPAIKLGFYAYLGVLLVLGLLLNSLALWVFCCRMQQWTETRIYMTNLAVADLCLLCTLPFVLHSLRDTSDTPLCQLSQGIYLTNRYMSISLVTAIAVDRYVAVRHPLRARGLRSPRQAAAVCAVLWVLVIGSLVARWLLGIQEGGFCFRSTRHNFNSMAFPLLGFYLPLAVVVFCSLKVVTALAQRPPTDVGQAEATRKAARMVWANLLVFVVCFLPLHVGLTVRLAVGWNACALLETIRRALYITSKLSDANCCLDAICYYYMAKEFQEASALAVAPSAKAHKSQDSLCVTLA

Cannabinoid receptor 2 [12] = biological target: T6, Cannabinoid receptor 2 (Homo sapiens, UniProt P34972); test: SAR analysis of agonists of the Cannabinoid Receptor 2 using an Image-Based Assay. [Related pubchem assays (depositor defined):AID2013, AID2026]; format: functional
T6 sequence (P34972 whole entry): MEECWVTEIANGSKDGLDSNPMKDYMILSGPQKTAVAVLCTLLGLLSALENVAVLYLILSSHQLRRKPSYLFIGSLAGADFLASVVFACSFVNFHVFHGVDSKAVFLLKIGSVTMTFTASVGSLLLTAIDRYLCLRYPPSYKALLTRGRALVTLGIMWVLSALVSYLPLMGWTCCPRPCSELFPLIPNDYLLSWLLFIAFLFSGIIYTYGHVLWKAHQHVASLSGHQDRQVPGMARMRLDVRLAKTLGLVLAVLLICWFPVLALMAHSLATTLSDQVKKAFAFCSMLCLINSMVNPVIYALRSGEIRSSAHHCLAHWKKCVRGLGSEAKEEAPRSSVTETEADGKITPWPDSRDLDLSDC

[13] = biological target: T4, G-protein coupled receptor 55; test: inhibition of LPI-stimulated GPR55 beta-arrestin translocation – imaging, U2OS, beta-arrestin-GFP, LPI agonist, primary screen (AID 2013); format: functional;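 further: antagonist potency measured as reduced agonist-driven arrestin aggregation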
Cannabinoid receptor 1 [14] = biological target: T7, Cannabinoid receptor 1 (Homo sapiens, UniProt P21554); test: SAR analysis of antagonists of the Cannabinoid Receptor 1 using an Image-Based Assay - Set 2. [Related pubchem assays (depositor defined):AID2013, AID2026]; format: functional
T7 sequence (P21554 whole entry): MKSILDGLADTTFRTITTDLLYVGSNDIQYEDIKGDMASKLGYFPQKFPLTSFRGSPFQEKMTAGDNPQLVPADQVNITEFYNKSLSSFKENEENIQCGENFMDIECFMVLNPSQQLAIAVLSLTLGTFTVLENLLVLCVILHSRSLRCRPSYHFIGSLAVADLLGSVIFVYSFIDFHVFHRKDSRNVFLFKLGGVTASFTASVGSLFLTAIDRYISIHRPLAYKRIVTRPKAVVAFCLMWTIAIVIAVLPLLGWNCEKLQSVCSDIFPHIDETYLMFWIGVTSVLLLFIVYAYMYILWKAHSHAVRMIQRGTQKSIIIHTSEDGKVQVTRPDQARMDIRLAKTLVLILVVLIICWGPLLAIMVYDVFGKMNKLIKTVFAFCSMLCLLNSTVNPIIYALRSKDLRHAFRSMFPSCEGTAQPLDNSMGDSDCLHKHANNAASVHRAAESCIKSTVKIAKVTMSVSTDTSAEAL

Cannabinoid receptor 2 [15] = biological target: T6, Cannabinoid receptor 2; test: SAR analysis of antagonists of the Cannabinoid Receptor 2 using an Image-Based Assay. [Related pubchem assays (depositor defined):AID2013, AID2026]; format: functional
Cannabinoid receptor 1 [16] = biological target: T7, Cannabinoid receptor 1; test: SAR analysis of agonists of the Cannabinoid Receptor 1 using an Image-Based Assay - Set 2. [Related pubchem assays (depositor defined):AID2013, AID2026]; format: functional
[17] = biological target: T5, G-protein coupled receptor 35; test: SAR analysis of Antagonists of the GPR35 Receptor using an Image-Based Assay - Set 3. [Related pubchem assays (depositor defined):AID2013, AID2026]; format: functional
Bcl-2-related protein A1 = biological target: T8, Bcl-2-related protein A1 (Mus musculus, UniProt Q07440); format: functional;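 further: confirmatory dose–response counterscreen on Bfl-1, used to check hits from a UBC13 polyubiquitin inhibitor campaign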
T8 sequence (Q07440 whole entry): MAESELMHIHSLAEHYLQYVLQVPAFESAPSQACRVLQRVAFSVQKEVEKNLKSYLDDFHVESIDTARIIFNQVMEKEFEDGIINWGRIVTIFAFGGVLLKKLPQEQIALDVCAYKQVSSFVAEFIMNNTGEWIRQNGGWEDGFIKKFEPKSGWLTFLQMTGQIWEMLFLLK

[18] = biological target: T9, Ubiquitin-conjugating enzyme E2 N (Homo sapiens, UniProt P61088); format: functional
T9 sequence (P61088 whole entry): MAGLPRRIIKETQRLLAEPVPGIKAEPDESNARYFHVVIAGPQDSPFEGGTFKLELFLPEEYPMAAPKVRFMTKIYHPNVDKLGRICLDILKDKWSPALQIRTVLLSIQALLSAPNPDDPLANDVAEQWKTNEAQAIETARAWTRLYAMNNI

[19] = biological target: T9, Ubiquitin-conjugating enzyme E2 N; format: functional; remark: listed apart in the source
cells [20] = format: functional, cell-based
Bcl-2-like protein 1 = Bcl-2-like protein 1 (Homo sapiens, UniProt Q07817); test: blockers of BCLXL peptide binding – biochemical, fluorescence polarization, 1536-well, selectivity assay for MCL1 inhibitor project, dose response (AID 2218)
Bcl-2-like protein 1, sequence (Q07817 whole entry): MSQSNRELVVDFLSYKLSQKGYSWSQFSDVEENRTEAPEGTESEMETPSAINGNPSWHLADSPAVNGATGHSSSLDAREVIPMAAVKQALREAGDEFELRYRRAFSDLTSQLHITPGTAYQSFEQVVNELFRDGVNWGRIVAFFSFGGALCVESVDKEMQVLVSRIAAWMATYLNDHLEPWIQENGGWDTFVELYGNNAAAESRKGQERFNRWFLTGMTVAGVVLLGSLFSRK

[21] = biological target: T10, Induced myeloid leukemia cell differentiation protein Mcl-1 (Homo sapiens, UniProt Q07820); format: functional
T10 sequence (Q07820 whole entry, the tested form may be a part): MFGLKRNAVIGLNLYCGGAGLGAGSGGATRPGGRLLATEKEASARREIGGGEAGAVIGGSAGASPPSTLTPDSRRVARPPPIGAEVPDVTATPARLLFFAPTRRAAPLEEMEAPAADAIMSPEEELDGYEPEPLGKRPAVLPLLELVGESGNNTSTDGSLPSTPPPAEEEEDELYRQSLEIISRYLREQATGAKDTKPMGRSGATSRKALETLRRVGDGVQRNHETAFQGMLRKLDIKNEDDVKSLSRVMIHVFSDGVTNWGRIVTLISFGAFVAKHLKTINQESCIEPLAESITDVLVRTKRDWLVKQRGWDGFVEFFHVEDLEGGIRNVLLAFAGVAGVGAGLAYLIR

[22] = biological target: T11, Carboxy-terminal domain RNA polymerase II polypeptide A small phosphatase 1 (Homo sapiens, UniProt Q9GZU7); test: CTDSP1 inhibitors, concentration-response, biochemical, absorbance readout, ultra-high-throughput screen actives (AID 540297); format: functional
T11 sequence (Q9GZU7 whole entry): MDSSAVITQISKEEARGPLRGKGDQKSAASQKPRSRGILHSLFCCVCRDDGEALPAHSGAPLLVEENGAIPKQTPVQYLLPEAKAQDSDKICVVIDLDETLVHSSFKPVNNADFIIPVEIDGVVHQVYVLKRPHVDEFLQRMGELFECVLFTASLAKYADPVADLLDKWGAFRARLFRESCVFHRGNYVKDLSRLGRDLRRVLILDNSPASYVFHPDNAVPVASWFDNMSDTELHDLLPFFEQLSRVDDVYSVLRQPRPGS

[23] = biological target: T12, Alkaline phosphatase, tissue-nonspecific isozyme (Homo sapiens, UniProt P05186); test: TNAP enzyme inhibition by screening hits, dose response, selectivity assay for mouse IAP inhibitor project, biochemical, human TNAP, uHTS hits (AID 488906); format: functional
T12 sequence (P05186 whole entry): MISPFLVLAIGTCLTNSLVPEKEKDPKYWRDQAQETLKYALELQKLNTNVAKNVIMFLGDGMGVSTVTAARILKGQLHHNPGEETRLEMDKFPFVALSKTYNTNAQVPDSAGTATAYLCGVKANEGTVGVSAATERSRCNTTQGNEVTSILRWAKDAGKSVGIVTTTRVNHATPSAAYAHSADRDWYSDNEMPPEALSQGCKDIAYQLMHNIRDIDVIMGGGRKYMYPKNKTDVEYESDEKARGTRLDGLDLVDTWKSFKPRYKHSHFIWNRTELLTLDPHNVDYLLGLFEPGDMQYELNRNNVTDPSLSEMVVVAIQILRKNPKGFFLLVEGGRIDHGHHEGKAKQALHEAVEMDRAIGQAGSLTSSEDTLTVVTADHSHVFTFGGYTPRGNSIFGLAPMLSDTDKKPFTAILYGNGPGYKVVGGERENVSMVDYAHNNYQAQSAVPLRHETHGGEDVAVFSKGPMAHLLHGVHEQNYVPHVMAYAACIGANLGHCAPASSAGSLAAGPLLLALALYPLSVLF

[24] = biological target: Intestinal-type alkaline phosphatase (Homo sapiens, UniProt P09923); test: activation of human intestinal alkaline phosphatase – biochemical, dose response (AID 488873); format: functional
Intestinal-type alkaline phosphatase (Homo sapiens, UniProt P09923), sequence (P09923 whole entry): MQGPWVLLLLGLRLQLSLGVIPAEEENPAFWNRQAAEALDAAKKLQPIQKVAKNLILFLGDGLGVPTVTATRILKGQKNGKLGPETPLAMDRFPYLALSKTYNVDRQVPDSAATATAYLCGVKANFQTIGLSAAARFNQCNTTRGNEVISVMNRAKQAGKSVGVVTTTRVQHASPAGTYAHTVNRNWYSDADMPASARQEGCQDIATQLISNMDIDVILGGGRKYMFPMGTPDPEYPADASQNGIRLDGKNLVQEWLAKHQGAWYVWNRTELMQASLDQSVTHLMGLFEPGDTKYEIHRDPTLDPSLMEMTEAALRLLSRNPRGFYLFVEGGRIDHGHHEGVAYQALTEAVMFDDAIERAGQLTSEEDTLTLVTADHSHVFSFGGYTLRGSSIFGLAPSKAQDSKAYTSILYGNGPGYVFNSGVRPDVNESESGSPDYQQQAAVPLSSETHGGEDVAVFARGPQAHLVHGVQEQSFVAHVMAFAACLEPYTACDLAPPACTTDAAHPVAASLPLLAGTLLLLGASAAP

cells [25] = format: functional, cell-based; remark: listed apart in the source
[26] = biological target: Intestinal-type alkaline phosphatase (Mus musculus, UniProt P24822); test: PubChem AID 488785; format: functional
Intestinal-type alkaline phosphatase (Mus musculus, UniProt P24822), sequence (P24822 whole entry): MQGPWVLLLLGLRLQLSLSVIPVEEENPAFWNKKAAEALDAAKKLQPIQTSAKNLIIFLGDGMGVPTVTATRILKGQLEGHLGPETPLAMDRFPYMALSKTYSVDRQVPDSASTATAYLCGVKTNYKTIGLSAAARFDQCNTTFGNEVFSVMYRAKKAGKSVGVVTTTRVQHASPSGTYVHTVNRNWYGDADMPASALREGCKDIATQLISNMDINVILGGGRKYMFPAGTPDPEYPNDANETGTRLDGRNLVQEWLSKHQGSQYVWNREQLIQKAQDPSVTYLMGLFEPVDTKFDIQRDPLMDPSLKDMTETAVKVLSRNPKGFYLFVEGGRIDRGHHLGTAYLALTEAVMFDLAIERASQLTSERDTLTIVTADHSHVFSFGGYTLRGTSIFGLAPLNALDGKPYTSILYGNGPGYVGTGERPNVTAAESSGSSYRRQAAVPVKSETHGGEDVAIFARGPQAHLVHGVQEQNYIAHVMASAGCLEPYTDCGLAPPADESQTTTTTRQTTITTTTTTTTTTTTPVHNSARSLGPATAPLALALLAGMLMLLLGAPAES

[27] = biological target: T10, Induced myeloid leukemia cell differentiation protein Mcl-1; test: blockers of MCL1 binding to BIM peptide – biochemical, fluorescence polarization, BIM-BH3 peptide, 1536-well, dose response (AID 2217)

SMILES: CC(C)n1c(SCCCc2ccccc2)nc2c1c(=O)[nH]c(=O)n2C
- IC50 [1]: > 25 µM (inactive)
- IC50 [2]: > 20 µM (inactive)
- IC50 (HEK293 [3]): > 20 µM (inactive)
- IC50 (Interleukin-8 [4]): > 25 µM (inactive)
- IC50 (Tumor necrosis factor): > 20 µM (inactive)
- IC50 [5]: 12.3 µM (active)
- IC50 [6]: 17.6 µM (active)
- IC50 [7]: > 20 µM (inactive)
- IC50 (HEK293 [8]): > 20 µM (inactive)
- IC50 (Interleukin-8 [9]): > 25 µM (inactive)

- IC50 [10]: 2.72 µM (active)
- EC50 [11]: > 32 µM (inactive)
- EC50 (Cannabinoid receptor 2 [12]): > 32 µM (inactive)
- IC50 [13]: 4.1 µM (active)
- IC50 (Cannabinoid receptor 1 [14]): > 32 µM (inactive)
- IC50 (Cannabinoid receptor 2 [15]): > 32 µM (inactive)
- EC50 (Cannabinoid receptor 1 [16]): > 32 µM (inactive)
- IC50 [17]: > 32 µM (inactive)
SMILES: CC1=CC(C)(C)N2C(=O)C3(SCC(=O)N3c3ccc(O)cc3)c3cc(C)cc1c32 (stereo not given)

- IC50 (Bcl-2-related protein A1): > 20 µM (inactive)
- IC50 [18]: 4.28 µM (active)
- IC50 [19]: 2.18 µM (active)
SMILES: CC1(C)Cc2c(sc(NC(=O)C(=O)NCC3CCCO3)c2C(N)=O)CO1 (stereo not given)

SMILES: O=[N+]([O-])c1cc(S(=O)(=O)c2ccc(O)c([N+](=O)[O-])c2)ccc1O
- EC50 (cells [20]): > 350 µM (not active)
- IC50 (Bcl-2-like protein 1): > 109 µM (not active)
- IC50 [21]: 2.82 µM (active)
- IC50 [22]: 3.31 µM (active)
- IC50 [23]: > 100 µM (inactive)
- EC50 [24]: > 100 µM (inactive)
- EC50 (cells [25]): > 350 µM (not active)
- IC50 [26]: 5.39 µM (active)
- IC50 [27]: 12.5 µM (not active)
